Data from ChEMBL document CHEMBL3603831, “Discovery of Potent 17β-Hydroxywithanolides for Castration-Resistant Prostate Cancer by High-Throughput Screening of a Natural Products Library for Androgen-Induced Gene Expression Inhibitors” (J Med Chem, 2015).
Active and inactive are the calls of the source. No cut-off for these calls is given here.

How the values were obtained:
PC-3 [1] = experiment: Cytotoxicity against human PC3 cells assessed as inhibition of cell proliferation/survival after 72 hrs by resazurin dye reduction assay; assay type: functional, cell-based; settings: PC-3, 72 h
MCF7 = experiment: Cytotoxicity against human MCF7 cells assessed as inhibition of cell proliferation/survival after 72 hrs by resazurin dye reduction assay; assay type: functional, cell-based; settings: MCF7, 72 h
SF-268 = experiment: Cytotoxicity against human SF268 cells assessed as inhibition of cell proliferation/survival after 72 hrs by resazurin dye reduction assay; assay type: functional, cell-based; settings: SF-268, 72 h
Serum = experiment: Drug uptake in SCID mouse serum at 25 mg/kg, sc administered in trappsol measured after 1 hr; assay type: ADME, organism-based; settings: in vivo
Plasma [2] = experiment: Drug uptake in SCID mouse plasma at 50 mg/kg, ip; assay type: ADME, organism-based; settings: in vivo
[3] = Toxicity in sc dosed SCID mouse administered in trappsol once per day for 5 days followed by 2 days of rest and again dose repetition; assay type: organism-based; settings: in vivo
PC-3 [4] = experiment: Antitumor activity against human PC3 cells xenografted in SCID mouse assessed as tumor growth inhibition at 26 to 40 mg/kg, ip coadministered with taxotere for five times per week up to two weeks measured twice per week; assay type: functional, organism-based
Mus musculus [5] = experiment: Toxicity in SCID mouse xenografted with human LNCAP cells assessed as mortality at 15 to 25 mg/kg, sc administered in trappsol for five times per week up to two weeks; assay type: organism-based; settings: in vivo
LNCaP [6] = experiment: Antitumor activity against human LNCAP cells xenografted in SCID mouse assessed as tumor growth inhibition at 15 to 25 mg/kg, sc coadministered with taxotere in trappsol for five times per week up to two weeks measured twice per week; assay type: functional, organism-based
NCI-H460 = experiment: Cytotoxicity against human NCI-H460 cells assessed as inhibition of cell proliferation/survival after 72 hrs by resazurin dye reduction assay; assay type: functional, cell-based; settings: NCI-H460, 72 h
Mus musculus [7] = experiment: Toxicity in SCID mouse xenografted with human PC3 cells assessed as mortality at 26 to 40 mg/kg, ip for five times per week up to two weeks; assay type: organism-based, PC-3; settings: in vivo
HFF = experiment: Cytotoxicity against HFF assessed as inhibition of cell proliferation/survival after 72 hrs by resazurin dye reduction assay; assay type: cell-based; settings: Homo sapiens
LNCaP [8] = experiment: Antitumor activity against human LNCAP cells xenografted in sc dosed SCID mouse assessed as tumor growth inhibition administered in trappsol for five times per week up to two weeks measured twice per week; assay type: functional, organism-based
PC-3 [9] = experiment: Antitumor activity against human PC3 cells xenografted in ip dosed SCID mouse assessed as tumor growth inhibition for five times per week up to two weeks measured twice per week; assay type: functional, organism-based
Plasma [10] = experiment: Drug uptake in SCID mouse plasma at 50 mg/kg administered through gastric gavage; assay type: ADME, organism-based; settings: in vivo, po
LNCaP [11] = experiment: Cytotoxicity against human LNCAP cells assessed as inhibition of cell proliferation/survival after 72 hrs by resazurin dye reduction assay; assay type: functional, cell-based
[12] = Tmax in SCID mouse at 50 mg/kg, ip; assay type: ADME, organism-based; settings: in vivo
Androgen receptor [13] = biological target: T1, Androgen receptor (Homo sapiens, UniProt P10275); experiment: Inhibition of androgen receptor in human LNCAP cells assessed as inhibition of DHT-induced KLK2 gene expression by Array Plate assay; assay type: cell-based
T1 sequence (P10275 whole entry): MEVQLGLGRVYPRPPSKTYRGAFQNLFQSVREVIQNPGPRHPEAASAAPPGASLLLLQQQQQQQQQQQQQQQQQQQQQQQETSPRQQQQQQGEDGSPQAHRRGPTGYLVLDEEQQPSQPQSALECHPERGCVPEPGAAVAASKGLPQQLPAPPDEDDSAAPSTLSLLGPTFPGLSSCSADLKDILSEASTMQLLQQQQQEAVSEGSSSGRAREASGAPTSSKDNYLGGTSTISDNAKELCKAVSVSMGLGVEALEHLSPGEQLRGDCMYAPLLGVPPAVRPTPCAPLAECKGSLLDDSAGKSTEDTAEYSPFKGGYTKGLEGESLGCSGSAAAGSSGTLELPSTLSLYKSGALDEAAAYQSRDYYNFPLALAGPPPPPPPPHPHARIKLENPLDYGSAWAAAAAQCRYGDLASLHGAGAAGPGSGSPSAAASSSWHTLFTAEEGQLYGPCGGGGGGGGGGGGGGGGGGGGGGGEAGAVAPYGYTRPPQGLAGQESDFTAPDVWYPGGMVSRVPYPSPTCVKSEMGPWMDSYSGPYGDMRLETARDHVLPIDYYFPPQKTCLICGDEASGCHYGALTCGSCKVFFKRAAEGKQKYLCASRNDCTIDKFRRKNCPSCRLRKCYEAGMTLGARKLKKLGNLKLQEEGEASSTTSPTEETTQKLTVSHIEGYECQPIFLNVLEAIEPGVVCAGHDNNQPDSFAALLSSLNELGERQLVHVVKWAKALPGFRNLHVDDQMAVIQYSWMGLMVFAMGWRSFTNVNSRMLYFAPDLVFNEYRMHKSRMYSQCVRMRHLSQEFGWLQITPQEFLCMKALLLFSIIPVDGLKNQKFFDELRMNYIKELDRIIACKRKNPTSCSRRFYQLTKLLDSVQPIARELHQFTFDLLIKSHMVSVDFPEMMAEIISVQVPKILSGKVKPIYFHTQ

Androgen receptor [14] = biological target: T1, Androgen receptor; experiment: Inhibition of androgen receptor in human LNCAP cells assessed as inhibition of DHT-induced SPDEF gene expression by Array Plate assay; assay type: cell-based
Androgen receptor [15] = biological target: T1, Androgen receptor; experiment: Inhibition of androgen receptor in human LNCAP cells assessed as inhibition of DHT-induced KLK3 gene expression by Array Plate assay; assay type: cell-based

Compound	IC50 (PC-3 [1]) [nM]	IC50 (MCF7) [nM]	IC50 (SF-268) [nM]	Drug uptake (Serum)	Drug uptake (Plasma [2])	MTD [3] [mg/kg]	TGI (PC-3 [4])	Activity (Mus musculus [5])	TGI (LNCaP [6])	IC50 (NCI-H460) [nM]	Activity (Mus musculus [7])	IC50 (HFF) [nM]	TGI (LNCaP [8])	TGI (PC-3 [9])	Drug uptake (Plasma [10])	IC50 (LNCaP [11]) [nM]	Tmax [12] [min]	IC50 (Androgen receptor [13]) [nM]	IC50 (Androgen receptor [14]) [nM]	IC50 (Androgen receptor [15]) [nM]
COc1cccc2c1C(=O)c1c(O)c3c(c(O)c1C2=O)C[C@@](O)(C(=O)CO)C[C@@H]3O[C@H]1C[C@H](N)[C@H](O)[C@H](C)O1 [DOXORUBICIN]	250	320	450																	
CC(=O)OC[C@]12CC[C@H]3[C@@H](C[C@H]4O[C@]45CC=CC(=O)[C@]35C)[C@]1(O)CC[C@@]2(O)[C@@](C)(O)[C@H]1CC(C)=C(C)C(=O)O1	90	210	2600	Active	Active	25	Active	Non-toxic	Active	800	Non-toxic	> 3100	Dose-dependent effect	Dose-dependent effect	Not Active	20	15			
CC(=O)OC[C@]12CC[C@H]3[C@@H](CC=C4C=CCC(=O)[C@@]43C)[C@]1(O)[C@@H](OC(C)=O)C[C@@]2(O)[C@@](C)(O)[C@H]1CC(C)=C(C)C(=O)O1	> 5000	> 5000	> 5000							> 5000		> 5000				2000		620	1200	1420
CC(=O)OC[C@]12CC[C@H]3[C@@H](CC=C4CC=CC(=O)[C@@]43C)[C@]1(O)[C@@H](OC(C)=O)C[C@@]2(O)[C@@](C)(O)[C@H]1CC(C)=C(C)C(=O)O1	2000	> 5000	> 5000							2000		> 2800				440		1790	2720	3580
CC(=O)OC[C@]12CC[C@H]3[C@@H](CC=C4CC=CC(=O)[C@@]43C)[C@]1(O)[C@@H](OC(C)=O)C[C@@]2(O)[C@@](C)(O)[C@H]1CC(CO)=C(C)C(=O)O1	> 5000	> 5000	> 5000							> 5000						3300				
